Source: patent US10300042B2, “Apremilast for the treatment of a liver disease or a liver function abnormality” (Celgene Corporation, priority 2014, dated 2019)

Experiments:
[1] = tested on: Aspartate Aminotransferase; test: AST levels in PSOR-008 and PSOR-009 (plaque psoriasis); format: in vivo, human; details: for AST High, % of patients / AST Low, % of patients / AST Normal, % of patients: Week 16, 30 mg BID
Experimental: Apremilast was studied in Phase 3 trials in patients with moderate to severe plaque psoriasis. […] The improvement in mild baseline liver function test abnormalities has been observed with apremilast daily use without any prescribed changes in physical activity, social or dietary habits. During the course of the study, there was observed a higher proportion of subjects in the apremilast treatment group (30 mg BID) with normal LFTs (i.e. normal levels of ALT and AST) at subsequent placebo-controlled study visits at week 16. See Tables 11 to 16 from PSOR-008 and PSOR-009 studies.

[2] = target: PDE2 (Homo sapiens, UniProt O00408); test: PDE2 enzyme assay; format: biochemical
Sequence of PDE2 (O00408 whole entry): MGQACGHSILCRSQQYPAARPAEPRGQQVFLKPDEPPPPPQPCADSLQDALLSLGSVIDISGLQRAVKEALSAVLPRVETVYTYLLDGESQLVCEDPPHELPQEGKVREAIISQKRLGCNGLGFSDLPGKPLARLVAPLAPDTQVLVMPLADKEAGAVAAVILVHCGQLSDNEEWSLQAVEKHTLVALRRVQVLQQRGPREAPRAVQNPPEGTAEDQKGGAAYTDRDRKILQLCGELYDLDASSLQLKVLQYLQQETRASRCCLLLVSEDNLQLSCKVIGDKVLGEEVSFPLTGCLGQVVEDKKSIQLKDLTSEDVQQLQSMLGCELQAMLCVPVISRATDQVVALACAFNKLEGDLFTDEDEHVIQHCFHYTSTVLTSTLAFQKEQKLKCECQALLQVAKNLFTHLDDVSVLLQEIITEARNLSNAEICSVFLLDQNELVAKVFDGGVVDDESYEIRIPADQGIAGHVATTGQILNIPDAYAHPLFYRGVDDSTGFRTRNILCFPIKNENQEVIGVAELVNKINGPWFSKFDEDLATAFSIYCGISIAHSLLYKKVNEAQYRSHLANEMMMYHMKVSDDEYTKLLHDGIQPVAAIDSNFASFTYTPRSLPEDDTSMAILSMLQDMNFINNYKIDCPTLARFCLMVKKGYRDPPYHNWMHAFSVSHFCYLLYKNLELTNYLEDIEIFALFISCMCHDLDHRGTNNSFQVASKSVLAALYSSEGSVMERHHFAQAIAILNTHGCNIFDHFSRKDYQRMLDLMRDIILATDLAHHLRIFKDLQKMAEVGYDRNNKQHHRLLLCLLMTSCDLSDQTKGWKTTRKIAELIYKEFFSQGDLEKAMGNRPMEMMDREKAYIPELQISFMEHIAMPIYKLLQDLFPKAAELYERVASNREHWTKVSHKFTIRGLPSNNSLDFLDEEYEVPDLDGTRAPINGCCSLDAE
Experimental: PDE1, 2, 3 and 5 enzyme assays were prepared as described by Hidaka and Asano. Biochem. Biophys. Acta., 1976, 429:485; see also Nicholsen et al., Trends Pharmaco. Sci., 1991, 12:19. The PDE6 enzyme assay was prepared according to Baehr et al., J. Biol. Chem., 1979, 254:11669 and Gillespie et al., Mol. Pharm., 1989, 36: 773. The PDE7 enzyme assay was prepared according to Bloom and Beavo. Proc. Natl. Acad. Sci. USA, 1996, 93:14188-92.

[3] = tested on: Aspartate Aminotransferase; test: AST levels in RA-002 (rheumatoid arthritis); format: in vivo, human; details: for AST High to Normal, percent of patients / AST Net Benefit / AST Normal to High, percent of patients: end of treatment (week 16); for AST High, % of patients / AST Low, % of patients / AST Normal, % of patients: Week 16
Experimental: The improvement in mild baseline liver function test abnormalities has been observed with apremilast daily use without any prescribed changes in physical activity, social or dietary habits. During the course of the study, there was observed a higher proportion of subjects in the 30 mg BID apremilast treatment group with normal LFTs at subsequent placebo-controlled study visits at week 16. See Tables 17 to 24 from RA-002 studies.

[4] = tested on: Aspartate Aminotransferase; test: AST levels in PSA-005 (psoriatic arthritis); format: in vivo, human; details: for AST High to Normal, percent of patients / AST Net Benefit / AST Normal to High, percent of patients: end of treatment (week 24)
From the text: Apremilast was studied in a Phase 3 trial in patients with active psoriatic arthritis who have not been previously treated with disease-modifying antirheumatic drugs. […] The improvement in mild baseline liver function test abnormalities has been observed with apremilast daily use without any prescribed changes in physical activity, social or dietary habits. […] See Tables 25 to 34 from PSA-005 studies.

[5] = tested on: PDE4; test: PDE4 enzyme inhibition (enzyme purified from U937 human monocytic cells); format: biochemical; details: 1 μM cAMP, 45 min at 30° C.
Experimental: Phosphodiesterase 4 enzyme was purified from U937 human monocytic cells by gel filtration chromatography, and phosphodiesterase reactions were carried out as previously described. See Muller et al., Bioorg. Med. Chem. Lett., 1998, 8(19): 2669-2674. Briefly, reactions were carried out in 96-well deep-well plates in 50 mM Tris HCl pH 7.5, 5 mM MgCl2, 1 μM cyclic adenosine monophosphate (cAMP), plus 10 nM [3H]-cAMP for 45 min at 30° C. The reactions were terminated by boiling, treated with 1 mg/ml snake venom, and separated using AG-1X8 ion exchange resin (BioRad). Reactions consumed less than 15% of available substrate.

[6] = 30 BID, end of treatment (week 16)
[7] = Baseline High, Week 24, 20 mg BID
[8] = Baseline High, Week 24, 30 mg BID
[9] = Baseline Normal, Week 24, 20 mg BID
[10] = Baseline Normal, Week 24, 30 mg BID
[11] = Baseline Total, Week 24, 20 mg BID
[12] = Baseline Total, Week 24, 30 mg BID

Structure (SMILES): CCOc1cc([C@@H](CS(C)(=O)=O)N2C(=O)c3cccc(NC(C)=O)c3C2=O)ccc1OC [Apremilast, (+)-2-[1-(3-ethoxy-4-methoxyphenyl)-2-methylsulfonylethyl]-4-acetylaminoisoindoline-1,3-dione]
- AST High to Normal, percent of patients [1, 6]: 60.3%
- AST Net Benefit [1, 6]: 46.3%
- AST Normal to High, percent of patients [1, 6]: 2.8%
- AST High to Normal, Difference (APR 30 BID vs Placebo) ([1]; 30 BID, week 16): 17.9%
- AST Net Benefit, Difference (APR 30 BID vs Placebo) ([1]; 30 BID, week 16): 12.2%
- AST Normal to High, Difference (APR 30 BID vs Placebo) ([1]; 30 BID, week 16): 0.3%
- AST High to Normal, Difference (APR 30 BID vs Placebo) ([1]; 30 BID, week 16, listed as APR): 17.9%
- AST High, % of patients ([1]; Baseline High): 39.7%
- AST Low, % of patients ([1]; Baseline High): 0.0%
- AST Normal, % of patients ([1]; Baseline High): 60.3%
- AST High, % of patients ([1]; Baseline Normal): 2.8%
- AST Low, % of patients ([1]; Baseline Normal): 0.0%
- AST Normal, % of patients ([1]; Baseline Normal): 97.2%
- AST High, % of patients ([1]; Baseline Total): 5.9%
- AST Low, % of patients ([1]; Baseline Total): 0.0%
- AST Normal, % of patients ([1]; Baseline Total): 94.1%
- inhibition at 10 µM [2]: 6%
- AST High to Normal, percent of patients ([3]; 20 BID): 50.0%
- AST Net Benefit ([3]; 20 BID): 33.3%
- AST Normal to High, percent of patients ([3]; 20 BID): 3.0%
- AST High to Normal, percent of patients ([3]; 30 BID): 100.0%
- AST Net Benefit ([3]; 30 BID): 50.0%
- AST Normal to High, percent of patients ([3]; 30 BID): 4.7%
- AST High to Normal, Difference between Placebo and APR 30 BID ([3]; 30 BID, week 16): 50%
- AST Net Benefit, Difference between Placebo and APR 30 BID ([3]; 30 BID, week 16): 16.7%
- AST Normal to High, Difference between Placebo and APR 30 BID ([3]; 30 BID, week 16): 1.7%
- AST High to Normal, Difference between Placebo and APR 30 BID ([3]; 30 BID, week 16, listed as APR): 50.0%
- AST High, % of patients ([3]; Baseline High, 20 mg BID): 50.0%
- AST Low, % of patients ([3]; Baseline High, 20 mg BID): 0.0%
- AST Normal, % of patients ([3]; Baseline High, 20 mg BID): 50.0%
- AST High, % of patients ([3]; Baseline High, 30 mg BID): 0.0%
- AST Low, % of patients ([3]; Baseline High, 30 mg BID): 0.0%
- AST Normal, % of patients ([3]; Baseline High, 30 mg BID): 100.0%
- AST High, % of patients ([3]; Baseline Normal, 20 mg BID): 3.0%
- AST Low, % of patients ([3]; Baseline Normal, 20 mg BID): 0.0%
- AST Normal, % of patients ([3]; Baseline Normal, 20 mg BID): 97.0%
- AST High, % of patients ([3]; Baseline Normal, 30 mg BID): 4.7%
- AST Low, % of patients ([3]; Baseline Normal, 30 mg BID): 0.0%
- AST Normal, % of patients ([3]; Baseline Normal, 30 mg BID): 95.3%
- AST High, % of patients ([3]; Baseline Total, 20 mg BID): 5.7%
- AST Low, % of patients ([3]; Baseline Total, 20 mg BID): 0.0%
- AST Normal, % of patients ([3]; Baseline Total, 20 mg BID): 94.3%
- AST High, % of patients ([3]; Baseline Total, 30 mg BID): 4.5%
- AST Low, % of patients ([3]; Baseline Total, 30 mg BID): 0.0%
- AST Normal, % of patients ([3]; Baseline Total, 30 mg BID): 95.5%
- AST High to Normal, percent of patients ([4]; 20 BID): 60.0%
- AST Net Benefit ([4]; 20 BID): 37.5%
- AST Normal to High, percent of patients ([4]; 20 BID): 2.0%
- AST High to Normal, percent of patients ([4]; 30 BID): 75.0%
- AST Net Benefit ([4]; 30 BID): 60.0%
- AST Normal to High, percent of patients ([4]; 30 BID): 2.1%
- AST High to Normal, Difference between Placebo and APR 30 BID ([4]; 30 BID, week 24): 25%
- AST Net Benefit, Difference between Placebo and APR 30 BID ([4]; 30 BID, week 24): 35.0%
- AST Normal to High, Difference between Placebo and APR 30 BID ([4]; 30 BID, week 24): −1.8%
- AST High to Normal, Difference between Placebo and APR 30 BID ([4]; 30 BID, week 24, listed as APR): 25.0%
- AST High, % of patients [4, 7]: 40.0%
- AST Low, % of patients [4, 7]: 0.0%
- AST Normal, % of patients [4, 7]: 60.0%
- AST High, % of patients [4, 8]: 25.0%
- AST Low, % of patients [4, 8]: 0.0%
- AST Normal, % of patients [4, 8]: 75.0%
- AST High, % of patients [4, 9]: 2.0%
- AST Low, % of patients [4, 9]: 0.0%
- AST Normal, % of patients [4, 9]: 98.0%
- AST High, % of patients [4, 10]: 2.1%
- AST Low, % of patients [4, 10]: 0.0%
- AST Normal, % of patients [4, 10]: 97.9%
- AST High, % of patients [4, 11]: 3.2%
- AST Low, % of patients [4, 11]: 0.0%
- AST Normal, % of patients [4, 11]: 96.8%
- AST High, % of patients [4, 12]: 3.9%
- AST Low, % of patients [4, 12]: 0.0%
- AST Normal, % of patients [4, 12]: 96.1%
- Baseline High AST: High % ([4]; Week 4, 20 mg BID): 71.4%
- Baseline High AST: Normal % ([4]; Week 4, 20 mg BID): 28.6%
- Baseline High AST: High % ([4]; Week 4, 30 mg BID): 50.0%
- Baseline High AST: Normal % ([4]; Week 4, 30 mg BID): 50.0%
- Baseline High AST: High % ([4]; Week 16, 20 mg BID): 20.0%
- Baseline High AST: Normal % ([4]; Week 16, 20 mg BID): 80.0%
- Baseline High AST: High % ([4]; Week 16, 30 mg BID): 41.7%
- Baseline High AST: Normal % ([4]; Week 16, 30 mg BID): 58.3%
- Baseline High AST: High % ([4]; Week 24, 20 mg BID): 40.0%
- Baseline High AST: Normal % ([4]; Week 24, 20 mg BID): 60.0%
- Baseline High AST: High % ([4]; Week 24, 30 mg BID): 25.0%
- Baseline High AST: Normal % ([4]; Week 24, 30 mg BID): 75.0%
- IC50 [5]: 73.5 nM
